Measurements as given in ChEMBL document CHEMBL1201862, “PubChem BioAssay data set” (2004).
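Assay format: 96-well plates, 48-hour exposure. GI50: concentration for 50% inhibition of growth.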 Activity calls are given as the source filed them. Rule as the data show it: active = GI50 up to about 1.1 µM and inactive = higher.

Key:
Assay in all cases: NCI-60 cell line screen, 48 h
A498 = tested on: A498
Hs-578T = tested on: Hs-578T
SK-OV-3 = tested on: SK-OV-3
SW-620 = tested on: SW-620
SNB-19 = tested on: SNB-19
K562 = tested on: K562
DU-145 = tested on: DU-145
SK-MEL-2 = tested on: SK-MEL-2
T47D = tested on: T47D
HT-29 = tested on: HT-29
SF-539 = tested on: SF-539
ACHN = tested on: ACHN
CAKI-1 = tested on: CAKI-1
MOLT-4 = tested on: MOLT-4
SN12C = tested on: SN12C
NCI/ADR-RES = tested on: NCI/ADR-RES
HCT-15 = tested on: HCT-15
SF-295 = tested on: SF-295
HOP-92 = tested on: HOP-92

Row | Structure (SMILES) | GI50 (A498) | GI50 (Hs-578T) | GI50 (SK-OV-3) | GI50 (SW-620) | GI50 (SNB-19) | GI50 (K562) | GI50 (DU-145) | GI50 (SK-MEL-2) | GI50 (T47D) | GI50 (HT-29) | GI50 (SF-539) | GI50 (ACHN) | GI50 (CAKI-1) | GI50 (MOLT-4) | GI50 (SN12C) | GI50 (NCI/ADR-RES) | GI50 (HCT-15) [µM] | GI50 (SF-295) | GI50 (HOP-92)
1 | CC(C)(C)C(=O)N(C(=S)OCc1ccccn1)c1ccccc1 | > 100 µM (inactive) | 39 µM (inactive) | > 100 µM (inactive) | 47.6 µM (inactive) | 59.6 µM (inactive) | 36.7 µM (inactive) | 38.6 µM (inactive) | 20.6 µM (inactive) | 20 µM (inactive) | 27.6 µM (inactive) | 20.4 µM (inactive) | 38.5 µM (inactive) | 35.2 µM (inactive) | 18.8 µM (inactive) | 31.3 µM (inactive) | 23.1 µM (inactive) | 30.1 | – | –
2 | N#C/C(N)=C(C#N)/N=C/Nc1ccc(N)cc1 | > 100 µM (inactive) | 95.3 µM (inactive) | > 100 µM (inactive) | > 100 µM (inactive) | > 100 µM (inactive) | > 100 µM (inactive) | > 100 µM (inactive) | > 100 µM (inactive) | > 100 µM (inactive) | > 100 µM (inactive) | > 100 µM (inactive) | > 100 µM (inactive) | > 100 µM (inactive) | > 100 µM (inactive) | > 100 µM (inactive) | > 100 µM (inactive) | > 100 | > 100 µM (inactive) | –
3 | CCCCCCCCCc1c(O)c(O)c(CCCCCCCCC)c(CCCCCCCCC)c1CCCCCCCCC | > 100 µM (inactive) | > 100 µM (inactive) | > 100 µM (inactive) | > 100 µM (inactive) | > 100 µM (inactive) | 65.9 µM (inactive) | > 100 µM (inactive) | > 100 µM (inactive) | > 100 µM (inactive) | > 100 µM (inactive) | > 100 µM (inactive) | > 100 µM (inactive) | > 100 µM (inactive) | > 100 µM (inactive) | > 100 µM (inactive) | > 100 µM (inactive) | > 100 | > 100 µM (inactive) | –
4 | COc1cc(CNc2ccc3nc4n(c(=O)c3c2)CCCCC4)cc(OC)c1OC | 50.6 µM (inactive) | 51.9 µM (inactive) | > 100 µM (inactive) | > 100 µM (inactive) | – | > 100 µM (inactive) | 66.7 µM (inactive) | 40.4 µM (inactive) | 24.1 µM (inactive) | 81.7 µM (inactive) | > 100 µM (inactive) | 35.2 µM (inactive) | 64 µM (inactive) | 32.7 µM (inactive) | > 100 µM (inactive) | 40.4 µM (inactive) | 45.6 | 47.9 µM (inactive) | 76 µM (inactive)
5 | N#CCCN(CCCCN(CCC#N)C(=O)Nc1ccccc1)C(=O)Nc1ccccc1 | > 100 µM (inactive) | > 100 µM (inactive) | > 100 µM (inactive) | > 100 µM (inactive) | > 100 µM (inactive) | > 100 µM (inactive) | > 100 µM (inactive) | > 100 µM (inactive) | > 100 µM (inactive) | > 100 µM (inactive) | – | > 100 µM (inactive) | > 100 µM (inactive) | > 100 µM (inactive) | > 100 µM (inactive) | > 100 µM (inactive) | > 100 | > 100 µM (inactive) | –
6 | Cc1ccc(S(=O)(=O)N(CC(O)c2ccccc2)c2ccccc2F)cc1 (configuration not stated) | 19.9 µM (inactive) | 16.9 µM (inactive) | 17.4 µM (inactive) | 19.6 µM (inactive) | 18 µM (inactive) | 17 µM (inactive) | 16.1 µM (inactive) | 17.9 µM (inactive) | 14.5 µM (inactive) | 19.3 µM (inactive) | 16.6 µM (inactive) | 20.2 µM (inactive) | 15.7 µM (inactive) | – | 17.8 µM (inactive) | 16.4 µM (inactive) | 17.7 | 17.5 µM (inactive) | 10.2 µM (inactive)
7 | CC(C)(C)c1cc(/C=C2/NC(=O)NC2=O)cc(C(C)(C)C)c1O | 14 µM (inactive) | 15.2 µM (inactive) | 16.8 µM (inactive) | 18.3 µM (inactive) | – | 13.2 µM (inactive) | 15.6 µM (inactive) | 13.8 µM (inactive) | 2.91 µM (inactive) | 11.7 µM (inactive) | 17 µM (inactive) | 11.8 µM (inactive) | 16.8 µM (inactive) | 17.1 µM (inactive) | 15.2 µM (inactive) | 14.1 µM (inactive) | 13.2 | 14.8 µM (inactive) | 14.2 µM (inactive)
8 | Cc1ccc2ccc(=O)oc2c1 | > 100 µM (inactive) | > 100 µM (inactive) | – | > 100 µM (inactive) | – | > 100 µM (inactive) | > 100 µM (inactive) | > 100 µM (inactive) | 94.6 µM (inactive) | > 100 µM (inactive) | > 100 µM (inactive) | > 100 µM (inactive) | > 100 µM (inactive) | > 100 µM (inactive) | > 100 µM (inactive) | > 100 µM (inactive) | – | > 100 µM (inactive) | > 100 µM (inactive)
9 | CN(C(=O)Cc1ccccc1)n1cn[n+](CC(=O)OC(C)(C)C)c1 | > 10 µM (inactive) | > 10 µM (inactive) | > 10 µM (inactive) | > 10 µM (inactive) | > 10 µM (inactive) | > 10 µM (inactive) | > 10 µM (inactive) | – | > 10 µM (inactive) | > 10 µM (inactive) | > 10 µM (inactive) | > 10 µM (inactive) | > 10 µM (inactive) | > 10 µM (inactive) | > 10 µM (inactive) | > 10 µM (inactive) | > 10 | > 10 µM (inactive) | > 10 µM (inactive)
10 | Cc1n2nc(N)sc2n[n+]1Cc1ccccc1 | > 100 µM (inactive) | > 100 µM (inactive) | > 100 µM (inactive) | > 100 µM (inactive) | > 100 µM (inactive) | 47.5 µM (inactive) | > 100 µM (inactive) | > 100 µM (inactive) | 38.4 µM (inactive) | > 100 µM (inactive) | > 100 µM (inactive) | > 100 µM (inactive) | > 100 µM (inactive) | > 100 µM (inactive) | > 100 µM (inactive) | > 100 µM (inactive) | > 100 | > 100 µM (inactive) | –
11 | O=C(NCCCNCCCCNCCCNC(=O)C(F)(F)F)C(F)(F)F | > 100 µM (inactive) | > 100 µM (inactive) | > 100 µM (inactive) | 54.8 µM (inactive) | – | – | > 100 µM (inactive) | > 100 µM (inactive) | > 100 µM (inactive) | > 100 µM (inactive) | > 100 µM (inactive) | > 100 µM (inactive) | 20 µM (inactive) | 0.359 µM (active) | 52.6 µM (inactive) | > 100 µM (inactive) | > 100 | > 100 µM (inactive) | –
12 | CN1CCN(C(=O)CCC(=O)Nc2cc3c(c4ccccc24)-c2ccc4ccccc4c2C3)CC1 | 13.8 µM (inactive) | 2.63 µM (inactive) | 1.6 µM (inactive) | – | 2.14 µM (inactive) | 1.91 µM (inactive) | 1.77 µM (inactive) | 1.97 µM (inactive) | 1.7 µM (inactive) | 1.72 µM (inactive) | 1.73 µM (inactive) | 2.12 µM (inactive) | 1.53 µM (inactive) | 1.77 µM (inactive) | 1.79 µM (inactive) | 2.21 µM (inactive) | 1.82 | 1.71 µM (inactive) | 1.73 µM (inactive)
13 | CC(=O)OCCn1cnc2nc(Nc3ccccc3)nc(Cl)c21 | > 100 µM (inactive) | > 100 µM (inactive) | > 100 µM (inactive) | > 100 µM (inactive) | > 100 µM (inactive) | 49 µM (inactive) | > 100 µM (inactive) | – | 40.7 µM (inactive) | > 100 µM (inactive) | > 100 µM (inactive) | 42 µM (inactive) | – | 54.2 µM (inactive) | > 100 µM (inactive) | 95.3 µM (inactive) | 45.4 | 82 µM (inactive) | 13.6 µM (inactive)
14 | COc1ccc(-c2ncnc(-c3ccc(OC)c(OC)c3)n2)cc1OC | > 100 µM (inactive) | > 100 µM (inactive) | > 100 µM (inactive) | > 100 µM (inactive) | – | > 100 µM (inactive) | > 100 µM (inactive) | > 100 µM (inactive) | > 100 µM (inactive) | > 100 µM (inactive) | – | > 100 µM (inactive) | > 100 µM (inactive) | – | > 100 µM (inactive) | > 100 µM (inactive) | – | > 100 µM (inactive) | > 100 µM (inactive)
15 | N=C(CC(=O)NOC(=O)c1ccccc1)NOC(=O)c1ccccc1 | 31.4 µM (inactive) | 36.2 µM (inactive) | 28.7 µM (inactive) | 50.8 µM (inactive) | 71.6 µM (inactive) | 28.5 µM (inactive) | > 100 µM (inactive) | – | > 100 µM (inactive) | > 100 µM (inactive) | 22.1 µM (inactive) | 29.6 µM (inactive) | 36.9 µM (inactive) | 28.5 µM (inactive) | 29.4 µM (inactive) | 25.5 µM (inactive) | 38.5 | 18.4 µM (inactive) | 39.4 µM (inactive)
16 | CC/C=C/C[C@H](O)[C@H]1C[C@H]2O[C@H](CC(=O)OC)C[C@H]2O1 | > 100 µM (inactive) | > 100 µM (inactive) | > 100 µM (inactive) | > 100 µM (inactive) | > 100 µM (inactive) | > 100 µM (inactive) | > 100 µM (inactive) | > 100 µM (inactive) | > 100 µM (inactive) | > 100 µM (inactive) | – | > 100 µM (inactive) | > 100 µM (inactive) | > 100 µM (inactive) | > 100 µM (inactive) | > 100 µM (inactive) | > 100 | > 100 µM (inactive) | –
